How the values were obtained:
EGFR = EGFR (Homo sapiens, UniProt P00533); test: EGFR signaling (pEGFR Tyr1068/total EGFR MSD) in A431 cells; assay type: cell-based; parameters: endogenous in cells; host or cells: A431, N87; settings: for EC50: A431 cells, read-out: A431 pEGFR EC50; for Selectivity A431 EC50/BT474 EC50: ratio A431 pEGFR EC50 to BT474 pHER2 EC50; for Selectivity A431 EC50/HEKYVMA EC50: ratio A431 pEGFR EC50 to HEK YVMA pHER2 EC50
How it was run: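 Serum-starved A431 cells were pretreated 1.5 h in 1% FBS with compound (0.005–10 μM, 0.1% DMSO), then stimulated with 100 ng/mL human EGF for 10 min. Lysate pEGFR Tyr1068 was measured by MSD and normalized to total EGFR as % DMSO control; EC50 from variable-slope sigmoidal fit.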

[1] = target: T1, HER2 wildtype (WT) protein (Homo sapiens, UniProt P04626); test: HER2 signaling (pHER2 Tyr1248/total HER2 MSD) in BT474 cells; assay type: cell-based; settings: 1.5 hr compound, 1% FBS
T1 construct: BT474 and N87 cell lines which endogenously overexpress the HER2 wildtype (WT) protein; endogenous in cells; host or cells: BT474, N87
T1 sequence (P04626 23-1255): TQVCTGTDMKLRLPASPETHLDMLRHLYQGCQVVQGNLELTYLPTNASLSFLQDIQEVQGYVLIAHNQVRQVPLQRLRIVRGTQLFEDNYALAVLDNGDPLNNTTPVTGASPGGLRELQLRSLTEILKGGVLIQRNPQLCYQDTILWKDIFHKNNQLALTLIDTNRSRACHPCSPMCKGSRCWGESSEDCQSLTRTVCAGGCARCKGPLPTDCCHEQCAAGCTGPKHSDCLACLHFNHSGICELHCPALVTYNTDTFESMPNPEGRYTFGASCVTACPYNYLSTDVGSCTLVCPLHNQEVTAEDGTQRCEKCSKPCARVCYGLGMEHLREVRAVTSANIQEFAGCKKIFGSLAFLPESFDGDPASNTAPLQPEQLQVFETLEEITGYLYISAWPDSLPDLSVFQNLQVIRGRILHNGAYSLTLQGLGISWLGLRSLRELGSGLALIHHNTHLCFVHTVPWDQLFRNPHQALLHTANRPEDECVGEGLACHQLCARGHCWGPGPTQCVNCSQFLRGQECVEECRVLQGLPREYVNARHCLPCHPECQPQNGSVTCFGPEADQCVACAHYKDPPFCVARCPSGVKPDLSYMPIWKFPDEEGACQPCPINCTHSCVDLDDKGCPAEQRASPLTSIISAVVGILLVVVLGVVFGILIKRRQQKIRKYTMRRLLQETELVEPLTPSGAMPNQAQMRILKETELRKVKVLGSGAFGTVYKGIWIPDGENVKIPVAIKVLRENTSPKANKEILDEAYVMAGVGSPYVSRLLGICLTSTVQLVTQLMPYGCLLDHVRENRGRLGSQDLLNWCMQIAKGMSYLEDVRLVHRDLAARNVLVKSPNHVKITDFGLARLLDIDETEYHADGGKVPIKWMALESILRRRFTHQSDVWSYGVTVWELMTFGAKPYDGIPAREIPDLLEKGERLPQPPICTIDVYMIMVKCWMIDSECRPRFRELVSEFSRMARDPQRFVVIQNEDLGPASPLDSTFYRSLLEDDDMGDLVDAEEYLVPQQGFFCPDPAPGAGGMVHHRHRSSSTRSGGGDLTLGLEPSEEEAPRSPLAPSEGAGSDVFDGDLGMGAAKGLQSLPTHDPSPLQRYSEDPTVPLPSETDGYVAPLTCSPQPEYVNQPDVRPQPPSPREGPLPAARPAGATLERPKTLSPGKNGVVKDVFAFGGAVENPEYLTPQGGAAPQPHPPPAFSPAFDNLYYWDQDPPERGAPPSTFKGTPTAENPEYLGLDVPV
How it was run: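 BT474, N87 (HER2 WT) and NCI-H1781 (HER2 G776delinsVC) cells were treated for 1.5 h at 37° C in 1% FBS medium with compound at 0.0005–1.1 μM. pHER2 Tyr1248 was measured by MSD on whole-cell lysates and normalized to total HER2 as % DMSO. EC50 came from a variable-slope sigmoidal fit.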

Sequence of EGFR (P00533 25-1210): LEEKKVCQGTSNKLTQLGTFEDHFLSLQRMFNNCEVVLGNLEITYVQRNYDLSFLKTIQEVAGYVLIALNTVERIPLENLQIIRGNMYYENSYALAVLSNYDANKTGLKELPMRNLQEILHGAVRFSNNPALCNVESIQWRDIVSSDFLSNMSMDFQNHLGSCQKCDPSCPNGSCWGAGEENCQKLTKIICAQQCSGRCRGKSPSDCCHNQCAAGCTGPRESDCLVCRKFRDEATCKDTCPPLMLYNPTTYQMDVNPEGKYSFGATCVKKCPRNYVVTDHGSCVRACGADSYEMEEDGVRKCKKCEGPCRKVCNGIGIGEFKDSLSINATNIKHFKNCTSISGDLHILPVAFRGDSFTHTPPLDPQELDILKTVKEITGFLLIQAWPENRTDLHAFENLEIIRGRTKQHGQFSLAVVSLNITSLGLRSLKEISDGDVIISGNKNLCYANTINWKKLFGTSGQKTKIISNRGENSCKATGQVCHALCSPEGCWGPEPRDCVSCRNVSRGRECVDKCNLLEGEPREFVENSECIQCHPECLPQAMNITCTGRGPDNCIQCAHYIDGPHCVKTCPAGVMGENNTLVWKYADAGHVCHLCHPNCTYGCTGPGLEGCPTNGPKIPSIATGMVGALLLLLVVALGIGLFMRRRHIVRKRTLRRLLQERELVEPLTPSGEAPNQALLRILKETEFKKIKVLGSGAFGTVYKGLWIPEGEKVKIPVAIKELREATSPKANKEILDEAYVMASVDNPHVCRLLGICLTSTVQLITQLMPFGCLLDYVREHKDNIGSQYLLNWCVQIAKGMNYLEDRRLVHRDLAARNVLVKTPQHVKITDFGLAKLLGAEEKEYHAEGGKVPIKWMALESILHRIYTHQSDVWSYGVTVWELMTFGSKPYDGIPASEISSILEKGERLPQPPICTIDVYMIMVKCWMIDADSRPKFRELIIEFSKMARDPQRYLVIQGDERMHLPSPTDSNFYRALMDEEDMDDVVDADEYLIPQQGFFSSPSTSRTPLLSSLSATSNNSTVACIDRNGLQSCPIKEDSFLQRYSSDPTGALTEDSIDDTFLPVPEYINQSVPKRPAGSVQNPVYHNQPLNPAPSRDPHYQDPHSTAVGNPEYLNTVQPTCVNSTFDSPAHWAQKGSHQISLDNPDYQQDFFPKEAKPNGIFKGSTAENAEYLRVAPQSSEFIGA

Compound | EC50 (EGFR) | Selectivity A431 EC50/BT474 EC50 (EGFR) | Selectivity A431 EC50/HEKYVMA EC50 (EGFR) | EC50 [1]
Cc1ccc(Oc2ccc(Nc3ncnc4sc5c(c34)CCN(C(=O)/C=C/CN3CCCC(c4nccs4)C3)C5)cc2C)cn1 (stereo not drawn) [Compound 113] | 100 to 1000 nM | B (B: ≥ 20 and < 100) | C (C: ≥ 10 and < 20) | < 100 nM
Cc1ccc(Oc2ccc(Nc3ncnc4sc5c(c34)CCN(C(=O)/C=C/CN3CCC(O)C(C)(C)C3)C5)cc2C)cn1 (stereo not drawn) [Compound 114] | 100 to 1000 nM | B (B: ≥ 20 and < 100) | B (B: ≥ 20 and < 100) | < 100 nM
Cc1ccc(Oc2ccc(Nc3ncnc4sc5c(c34)CCN(C(=O)/C=C/CN3CCCC34CCC4)C5)cc2C)cn1 [Compound 115] | 100 to 1000 nM | C (C: ≥ 10 and < 20) | D (D: ≥ 5 and < 10) | < 100 nM
Cc1ccc(Oc2ccc(Nc3ncnc4sc5c(c34)CCN(C(=O)/C=C/CN3CC(C)OC(C)C3C)C5)cc2C)cn1 (stereo not drawn) [Compound 117] | 100 to 1000 nM | B (B: ≥ 20 and < 100) | B (B: ≥ 20 and < 100) | < 100 nM
Cc1ccc(Oc2ccc(Nc3ncnc4sc5c(c34)CCN(C(=O)/C=C/CN3CC4CC4(CO)C3)C5)cc2C)cn1 (stereo not drawn) [Compound 118] | 100 to 1000 nM | A (A: ≥100) | B (B: ≥ 20 and < 100) | < 100 nM
Cc1ccc(Oc2ccc(Nc3ncnc4sc5c(c34)CCN(C(=O)/C=C/CN3CCCCC3(C)CO)C5)cc2C)cn1 (stereo not drawn) [Compound 119] | 100 to 1000 nM | B (B: ≥ 20 and < 100) | B (B: ≥ 20 and < 100) | < 100 nM
Cc1ccc(Oc2ccc(Nc3ncnc4sc5c(c34)CCN(C(=O)/C=C/CN3C[C@H]4C[C@@H]3CC4C#N)C5)cc2C)cn1 (stereo partly drawn) [Compound 120] | 100 to 1000 nM | B (B: ≥ 20 and < 100) | B (B: ≥ 20 and < 100) | < 100 nM
Cc1ccc(Oc2ccc(Nc3ncnc4sc5c(c34)CCN(C(=O)/C=C/CN3CC(C)(C)OC(C)(C)C3)C5)cc2C)cn1 [Compound 121] | 1000 to 10000 nM | B (B: ≥ 20 and < 100) | C (C: ≥ 10 and < 20) | < 100 nM
CC[C@H](NC/C=C/C(=O)N1CCc2c(sc3ncnc(Nc4ccc(Oc5ccc(C)nc5)c(C)c4)c23)C1)C(F)(F)F [Compound 122] | 100 to 1000 nM | B (B: ≥ 20 and < 100) | B (B: ≥ 20 and < 100) | < 100 nM
Cc1ccc(Oc2ccc(Nc3ncnc4sc5c(c34)CCN(C(=O)/C=C/CN3CC4(CCCC4)C3)C5)cc2C)cn1 [Compound 123] | 100 to 1000 nM | C (C: ≥ 10 and < 20) | D (D: ≥ 5 and < 10) | < 100 nM
Cc1cc(Nc2ncnc3sc4c(c23)CCN(C(=O)/C=C/CN(C)C)C4)ccc1Oc1ccn2ccnc2c1 [Compound 126, (E)-4-(dimethylamino)-1-(4-((4-(imidazo[1,2-a]pyridin-7-yloxy)-3-methylphenyl)amino)-5,8-dihydropyrido[4′,3′:4,5]thieno[2,3-d]pyrimidin-7(6H)-yl)but-2-en-1-one] | 100 to 1000 nM | B (B: ≥ 20 and < 100) | B (B: ≥ 20 and < 100) | < 100 nM
Cc1nc2cc(Oc3ccc(Nc4ncnc5sc6c(c45)CCN(C(=O)/C=C/CN(C)C)C6)cc3C)ccn2n1 [Compound 127, (E)-4-(dimethylamino)-1-(4-((3-methyl-4-((2-methyl-[1,2,4]triazolo[1,5-a]pyridin-7-yl)oxy)phenyl)amino)-5,6-dihydropyrido[4′,3′:4,5]thieno[2,3-d]pyrimidin-7(8H)-yl)but-2-en-1-one] | 1000 to 10000 nM | A (A: ≥100) | B (B: ≥ 20 and < 100) | < 100 nM

Now from value to compound:

EC50 (EGFR) | Selectivity A431 EC50/BT474 EC50 (EGFR) | Selectivity A431 EC50/HEKYVMA EC50 (EGFR) | EC50 [1] | Compound
< 100 nM | B (B: ≥ 20 and < 100) | C (C: ≥ 10 and < 20) | < 100 nM | Cc1ccc(Oc2ccc(Nc3ncnc4sc5c(c34)CCN(C(=O)/C=C/CN3CC[C@H](F)C3)C5)cc2C)cn1 [Compound 124]
1000 to 10000 nM | B (B: ≥ 20 and < 100) | B (B: ≥ 20 and < 100) | < 100 nM | COc1ccc(Oc2ccc(Nc3ncnc4sc5c(c34)CN(C(=O)/C=C/CN(C)C)C5)cc2C)cn1 [Compound 128, (E)-4-(dimethylamino)-1-(4-((4-((6-methoxypyridin-3-yl)oxy)-3-methylphenyl)amino)-5,7-dihydro-6H-pyrrolo[3′,4′:4,5]thieno[2,3-d]pyrimidin-6-yl)but-2-en-1-one]
100 to 1000 nM | B (B: ≥ 20 and < 100) | B (B: ≥ 20 and < 100) | < 100 nM | Cc1ccc(Oc2ccc(Nc3ncnc4sc5c(c34)CN(C(=O)/C=C/CN(C)C)C5)cc2Cl)cn1 [Compound 129, (E)-1-(4-((3-Chloro-4-((6-methylpyridin-3-yl)oxy)phenyl)amino)-5H-pyrrolo[3′,4′:4,5]thieno[2,3-d]pyrimidin-6(7H)-yl)-4-(dimethylamino)but-2-en-1-one]
1000 to 10000 nM | A (A: ≥100) | A (A: ≥100) | < 100 nM | Cc1cc(Nc2ncnc3sc4c(c23)CN(C(=O)/C=C/CN(C)C)C4)ccc1Oc1ccn2ncnc2c1 [Compound 130, (E)-1-(4-((4-([1,2,4]Triazolo[1,5-a]pyridin-7-yloxy)-3-methylphenyl)amino)-5H-pyrrolo[3′,4′:4,5]thieno[2,3-d]pyrimidin-6(7H)-yl)-4-(dimethylamino)but-2-en-1-one]
< 100 nM | C (C: ≥ 10 and < 20) | D (D: ≥ 5 and < 10) | < 100 nM | CCN(CC)C/C=C/C(=O)N1CCc2c(sc3ncnc(Nc4ccc(Oc5ccc(C)nc5)c(C)c4)c23)C1 [Compound 131]
100 to 1000 nM | B (B: ≥ 20 and < 100) | C (C: ≥ 10 and < 20) | < 100 nM | Cc1ccc(Oc2ccc(Nc3ncnc4sc5c(c34)CCN(C(=O)/C=C/CN3CC[C@@H](CO)C3)C5)cc2C)cn1 [Compound 132]
100 to 1000 nM | B (B: ≥ 20 and < 100) | C (C: ≥ 10 and < 20) | < 100 nM | Cc1ccc(Oc2ccc(Nc3ncnc4sc5c(c34)CCN(C(=O)/C=C/CN3CC[C@H](CO)C3)C5)cc2C)cn1 [Compound 133]
1000 to 10000 nM | B (B: ≥ 20 and < 100) | B (B: ≥ 20 and < 100) | 100 to 350 nM | Cc1ccc(Oc2ccc(Nc3ncnc4sc5c(c34)CCN(C(=O)/C=C/CN3CC(CO)(CO)C3)C5)cc2C)cn1 [Compound 134]
1000 to 10000 nM | B (B: ≥ 20 and < 100) | D (D: ≥ 5 and < 10) | < 100 nM | Cc1ccc(Oc2ccc(Nc3ncnc4sc5c(c34)CCN(C(=O)/C=C/CN3CCC(CO)(CO)CC3)C5)cc2C)cn1 [Compound 135]

Reference: patent publication US20240391931A1 (Bristol-Myers Squibb Company, priority 2021, published 2024)
